pKi: −log10 of the molar value. Read-outs that look alike come from different tables or passages of the source.
Columns and labels:
dopamine 2 (D2) receptor = molecular target: T1, dopamine 2 (D2) receptor (Rattus norvegicus, UniProt P61169); test: Affinity for dopamine 2 receptor ([3H]spiperone binding, synaptosome fraction of corpus striatum); set-up: species or system Wistar rat; details: tritiated spiperone 0.2 nM, 37° C., 20 minutes, read-out: binding D2, inhibition constant (Ki value)
T1 construct: A synaptosome fraction was separated from corpus striatum; from tissue; host or cells: corpus striatum of Wistar rat, synaptosome fraction
T1 sequence (P61169 whole entry): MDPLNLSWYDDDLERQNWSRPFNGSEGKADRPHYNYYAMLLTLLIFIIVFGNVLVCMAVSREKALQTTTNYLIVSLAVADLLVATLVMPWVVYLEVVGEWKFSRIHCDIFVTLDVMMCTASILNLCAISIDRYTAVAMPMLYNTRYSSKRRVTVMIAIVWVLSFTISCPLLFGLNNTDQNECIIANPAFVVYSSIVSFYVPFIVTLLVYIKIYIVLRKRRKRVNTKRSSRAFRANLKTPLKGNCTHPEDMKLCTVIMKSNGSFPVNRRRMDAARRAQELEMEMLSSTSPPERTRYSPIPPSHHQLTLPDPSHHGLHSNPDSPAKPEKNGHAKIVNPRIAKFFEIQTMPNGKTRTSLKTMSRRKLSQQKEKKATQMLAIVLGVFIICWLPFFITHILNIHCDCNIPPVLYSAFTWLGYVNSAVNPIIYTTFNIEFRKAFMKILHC
Method: Experiment Example 1: Affinity for dopamine 2 receptor
A specific binding of dopamine 2 (D2) receptor was tested according to the method described in Eur. J. Pharmacol. 46, 377 (1977).
A synaptosome fraction was separated from corpus striatum of 9-10 weeks old Wistar rat, and suspended in 50 mM Tris-HCl buffer (pH 7.1) containing 120 mM sodium chloride, 5 mM potassium chloride, 2 mM calcium chloride, 1 mM magnesium chloride, 10 μM pargyline and 0.1% ascorbic acid for use in the test.
The test compound at several concentrations and tritiated spiperone (final concentration 0.2 nM) were added to the synaptosome suspension, and each mixture was reacted at 37° C. for 20 minutes. After the reaction, the reaction mixture was filtered with suction through a Whatman GF/B glass filter. The filter was washed with 50 mM Tris-HCl buffer (pH 7.7), and the radioactivity of the filter was measured by a liquid scintillation counter. Non-specific binding was determined in the presence of 10^-4 M(±)-sulpiride. The concentration necessary for 50% inhibition (IC50) was determined on a graph, and inhibition constant (Ki value) was calculated.

[1] = molecular target: T2, serotonin 1A (5-HT1A) receptor (Rattus norvegicus, UniProt P19327); test: Affinity for serotonin 1A receptor ([3H]8-OH-DPAT binding, crude synaptosome fraction of hippocampus); details: tritiated 8-OH-DPAT 0.2 nM, pH 7.4, 37° C., 12 minutes, read-out: binding 5-HT1A, inhibition constant (Ki value)
T2 construct: A crude synaptosome fraction was separated from hippocampus; from tissue; host or cells: hippocampus of Wistar rat, crude synaptosome fraction
T2 sequence (P19327 1-422): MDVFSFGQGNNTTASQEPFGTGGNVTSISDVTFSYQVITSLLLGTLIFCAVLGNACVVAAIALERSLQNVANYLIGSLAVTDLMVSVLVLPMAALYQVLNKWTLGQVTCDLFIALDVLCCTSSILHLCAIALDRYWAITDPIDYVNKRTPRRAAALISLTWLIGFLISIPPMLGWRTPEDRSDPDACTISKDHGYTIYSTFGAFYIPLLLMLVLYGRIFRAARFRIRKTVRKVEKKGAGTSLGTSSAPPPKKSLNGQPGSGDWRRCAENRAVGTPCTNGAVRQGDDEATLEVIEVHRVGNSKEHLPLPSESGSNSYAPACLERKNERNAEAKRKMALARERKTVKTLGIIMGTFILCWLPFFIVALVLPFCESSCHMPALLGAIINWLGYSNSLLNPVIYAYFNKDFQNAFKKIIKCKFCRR
Method: Experiment Example 2: Affinity for serotonin 1A receptor
A specific binding of serotonin 1A (5-HT1A) receptor was tested according to the method described in J. Neurochem. 44, 1685 (1985).
A crude synaptosome fraction was separated from hippocampus of 9-10 weeks old Nistar rat, and suspended in 50 mM Tris-HCl buffer (pH 7.4) containing 1 mM manganese chloride for use in the test. The test compound at several concentrations and tritiated 8-hydroxy-2-dipropylaminotctralin (8-OH-DPAT, final concentration 0.2 nM) were added to the synaptosome suspension, and each mixture was reacted at 37° C. for 12 minutes. After the reaction, the reaction mixture was filtered with suction through a Whatman GF/B glass filter. The filter was washed with 50 mM Tris-HCl buffer (pH 7.7), and the radioactivity of the filter was measured by a liquid scintillation counter. Non-specific binding was determined in the presence of 10^-5 M serotonin (5HT). The concentration necessary for 50% inhibition (IC50) was determined on a graph, and inhibition constant (Ki value) was calculated.

[2] = molecular target: T3, serotonin 2 (5-HT2) receptor (Rattus norvegicus, UniProt P14842); test: Affinity for serotonin 2 receptor ([3H]ketanserin binding, crude synaptosome fraction of hippocampus); set-up: species or system Wistar rat; details: tritiated ketanserin 0.2 nM, pH 7.7, 37° C., 20 minutes, read-out: binding 5-HT2, inhibition constant (Ki value)
T3 construct: A crude synaptosome fraction was separated from hippocampus; from tissue; host or cells: hippocampus of Wistar rat, crude synaptosome fraction
T3 sequence (P14842 whole entry): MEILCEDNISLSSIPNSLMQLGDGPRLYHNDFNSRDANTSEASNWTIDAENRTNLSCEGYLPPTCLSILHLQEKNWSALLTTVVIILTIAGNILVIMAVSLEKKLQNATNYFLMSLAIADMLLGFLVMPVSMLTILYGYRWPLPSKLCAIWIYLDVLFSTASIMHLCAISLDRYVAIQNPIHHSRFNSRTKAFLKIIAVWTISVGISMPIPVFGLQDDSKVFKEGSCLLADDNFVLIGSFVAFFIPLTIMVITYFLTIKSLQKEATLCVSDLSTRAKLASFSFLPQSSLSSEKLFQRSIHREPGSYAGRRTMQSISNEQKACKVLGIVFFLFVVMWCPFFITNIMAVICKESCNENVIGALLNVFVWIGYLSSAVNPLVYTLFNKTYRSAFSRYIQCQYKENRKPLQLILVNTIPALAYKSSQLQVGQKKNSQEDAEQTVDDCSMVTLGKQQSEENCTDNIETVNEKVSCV
Method: Experiment Example 3: Affinity for serotonin 2 receptor
A specific binding of serotonin 2 (5-HT2) receptor was tested according to the method described in Mol. Pharmacol. 21, 301 (1981).
A crude synaptosome fraction was separated from hippocampus of 9-10 weeks old Wistar rat, and suspended in 50 mM Tris-HCl buffer (pH 7.7) for use in the test. The test compound at several concentrations and tritiated ketanserin (final concentration 0.2 nM) were added to the synaptosome suspension, and each mixture was incubated at 37° C. for 20 minutes. After the incubation, the mixture was filtered with suction through a Whatman GF/B glass filter. The filter was washed with 50 mM Tris-HCl buffer (plt 7.7), and the radioactivity of the filter was measured by a liquid scintillation counter. Non-specific binding was determined in the presence of 10^-5 M mianserin. The concentration necessary for 50% inhibition (IC50) was determined on a graph, and inhibition constant (Ki value) was calculated.

apomorphine = test: Anti-apomorphine action (mouse); type: in vivo; details: 1 h before apomorphine, read-out: anti-apomorphine effect ED50
Method: The test compound was orally administered to the mice, and 60 minutes later, 0.5 mg/kg of apomorphine hydrochloride was subcutaneously administered. The movement for 20 minutes from immediately after the administration was measured using Balimex (Columbus, USA).

ddY mice = test: Acute toxicity; type: in vivo; details: 5 days

Row | Structure (SMILES) | pKi (dopamine 2 (D2) receptor) | pKi [1] | pKi [2] | ED50 (apomorphine; po) | death (ddY mice; 100 mg/kg intraperitoneally, 5 male ddY mice) | death (ddY mice; 300 mg/kg orally) | ED50 (apomorphine; male dd mice, oral, 60 minutes before 0.5 mg/kg s.c. apomorphine hydrochloride, movement for 20 minutes)
1 | CC(=O)c1ccc(SCCCN2CCN(c3nsc4ccccc34)CC2)s1 [Example 21, 3-(4-(3-((5-acctyl-2-thicnyl)thio)propyl)-l-piperadinyl)1,2-benzisothiazole] | 8.89 | 9.92 | 9.23 | 35 mg/kg | – | – | –
2 | CC(=O)NCc1cc(CCN2CCC(c3noc4cc(F)ccc34)CC2)c(C)s1 [Example 155, 3-(1-(2-(5-acetylaminomethyl-2-methyl-3-thienyl)ethyl)-piperidin-4-yl)-6-fluoro-1,2-benzisoxazole] | 8.85 | < 7.00 | 9.43 | 1.2 mg/kg | – | – | –
3 | CC(=O)NCc1ccc(C(=O)CCCN2CCC(c3noc4cc(F)ccc34)CC2)s1 [Example 95, 3-(1-(4-(5-acetylaminomethyl-2-thienyl)-4-oxobutyl)piperidin-4-yl)-6-fluoro-1,2-benzisoxazole] | 8.60 | 6.85 | 10.23 | 2.6 mg/kg | – | – | –
4 | CC(=O)NCCc1ccc(CCN2CCC(c3noc4cc(F)ccc34)CC2)s1 [Example 158, 3-(1-(2-(5-(2-acetylaminoethyl)-2-thienyl)ethyl)piperidin-4-yl) -6-fluoro-1,2-benzisoxazole] | 9.03 | 7.80 | 9.89 | 0.14 mg/kg | – | – | –
5 | CC(=O)c1ccc(SCCCN2CCN(c3cccc(C)c3C)CC2)s1 [Example 4, 1(3-((5-acetyl-2-thienyl)thio)propyl)-4-(2,3-dimethylphenyl)piperazine] | – | – | – | – | No death was observed | no death was observed | –
6 | CC(=O)NCc1ccc(CCN2CCC(c3noc4cc(F)ccc34)CC2)s1 [Example 119, 3-(1-(2-(5-acetylaminomethyl-2-thicnyl)ethyl)piperidin-4-yl)-6-fluoro-1,2-benzisoxazole] | 8.42 | 7.85 | 9.19 | 0.16 mg/kg | – | – | –
7 | CC(=O)NCCc1sc(CCN2CCC(c3noc4cc(F)ccc34)CC2)cc1Br [Example 159, 3-(1-(2-(5-(2-acetylaminoethyl)-4-bromo-2-thienyl)ethyl)-piperidin-4-yl) -6-fluoro-1,2-benzisoxazole] | 9.30 | 7.92 | 10.33 | 0.53 mg/kg | – | – | –
8 | CC(=O)NCc1ccc(CCCCN2CCC(c3noc4cc(F)ccc34)CC2)s1 [Example 108, 3-(1-(4-(5-acetylaminomethyl-2-thienyl)butyl)piperidin-4-yl) -6-fluoro-1,2-benzisoxazole] | 8.70 | 7.25 | 8.68 | 0.41 mg/kg | – | – | –
9 | NCc1ccc(CCCCN2CCC(c3noc4cc(F)ccc34)CC2)s1 [Example 165, 3-(1-(4-(5-aminomethyl-2-thienyl)butyl)piperidin-4-yl)-6-fluoro-1,2-benzisoxazole] | 9.16 | 8.77 | 8.89 | 0.24 mg/kg | – | – | –
10 | CC(=O)Nc1ccc(SCCCN2CCC(c3noc4cc(F)ccc34)CC2)s1 [Example 40, 3-(1-(3-((5-acetylamino-2-thienyl)thio)propyl)piperidin-4-yl) -6-fluoro-1,2-benzisoxazole] | 9.15 | 9.46 | 9.35 | 1 mg/kg | – | – | –
11 | CC(=O)NCc1sc(CCN2CCC(c3noc4cc(F)ccc34)CC2)cc1C [Example 151, 3-(1-(2-(5-acetylaminomethyl-4-methyl-2-thienyl)ethyl)-piperadin-4-yl)-6-fluoro-1,2-benzisoxazole] | 8.42 | 7.82 | 10.00 | – | – | – | 0.76 mg/kg
12 | CC(=O)NCc1ccc(SCCCN2CCC(c3noc4cc(F)ccc34)CC2)s1 [Example 93, 3-(1-(3-((5-acetylaminomethyl-2-thienyl)thio)propyl)-piperidin-4-yl)-6-fluoro-1,2-benzisoxazole] | 9.10 | 7.59 | 9.10 | 2.9 mg/kg | – | – | –
13 | CC(=O)c1ccc(SCCCN2CCC(c3noc4cc(F)ccc34)CC2)s1 [Example 36, 3-(1-(3-((5-acctyl-2-thienyl)thio)propyl)piperidin-4-yl)-6-fluoro-1,2-benzisoxazole] | 9.21 | 9.12 | 8.89 | 3.4 mg/kg | – | – | –

Source: patent publication US5466691A, “Thiophene compound” (Yoshitomi Pharmaceutical Industries, Ltd., priority 1991, dated 1995)
